In the supplement of paper PMC11424490:

Experiments:
NCI-H358 [1] = experiment: combination cScore with adagrasib (Bliss gap around IC50) (%PoC); higher = stronger additive effect
How it was run: (§1)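 The score averages the gap between expected and measured viability under Bliss independence, taken over a field around the IC50 of each single agent or, where an IC50 was not reached, at the highest concentrations. Viability came from CellTiter-Glo luminescence, normalised to vehicle wells as percent of control and fitted with four-parameter curves. NCI-H2122, NCI-H358 and SW837 cells were dosed in concentration matrices 24 h after seeding and grown for 72 h, or 144 h for SW837.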

NCI-H2122 [2] = experiment: as above
How it was run: as §1

SW837 [3] = experiment: as above
How it was run: as §1

NCI-H358 [4] = experiment: combination cScore with sotorasib (Bliss gap around IC50) (%PoC); higher = stronger additive effect
How it was run: as §1

NCI-H2122 [5] = experiment: as above
How it was run: as §1

SW837 [6] = experiment: as above
How it was run: as §1

SMILES	combination cScore with adagrasib (NCI-H358 [1])	combination cScore with adagrasib (NCI-H2122 [2])	combination cScore with adagrasib (SW837 [3])	combination cScore with sotorasib (NCI-H358 [4])	combination cScore with sotorasib (NCI-H2122 [5])	combination cScore with sotorasib (SW837 [6])
O=C(/C=C/c1cccc(S(=O)(=O)Nc2ccccc2)c1)NO [Belinostat] + C=C(F)C(=O)N1CCN(c2nc(OC[C@@H]3CCCN3C)nc3c2CCN(c2cccc4cccc(Cl)c24)C3)C[C@@H]1CC#N [adagrasib]	-4.65	7.12	5.49			
COc1cc(Nc2ncc(F)c(Nc3ccc4c(n3)N(COP(=O)(O)O)C(=O)C(C)(C)O4)n2)cc(OC)c1OC [Fostamatinib] + C=C(F)C(=O)N1CCN(c2nc(OC[C@@H]3CCCN3C)nc3c2CCN(c2cccc4cccc(Cl)c24)C3)C[C@@H]1CC#N [adagrasib]	3.37	17.4	7.91			
COc1cccc2c1C(=O)c1c(O)c3c(c(O)c1C2=O)C[C@@](O)(C(C)=O)C[C@@H]3O[C@H]1C[C@H](N)[C@H](O)[C@H](C)O1 [Daunorubicin] + C=C(F)C(=O)N1CCN(c2nc(OC[C@@H]3CCCN3C)nc3c2CCN(c2cccc4cccc(Cl)c24)C3)C[C@@H]1CC#N [adagrasib]	-0.64	4.15	4.77			
CNS(=O)(=O)Nc1nccc(Cc2c(C)c3ccc(Oc4ncccn4)cc3oc2=O)c1F + C=C(F)C(=O)N1CCN(c2nc(OC[C@@H]3CCCN3C)nc3c2CCN(c2cccc4cccc(Cl)c24)C3)C[C@@H]1CC#N [adagrasib]	3.4	9.73	3.07			
CC[C@H](Nc1ncnc2[nH]cnc12)c1nc2cccc(F)c2c(=O)n1-c1ccccc1 [Cal-101] + C=C(F)C(=O)N1CCN(c2nc(OC[C@@H]3CCCN3C)nc3c2CCN(c2cccc4cccc(Cl)c24)C3)C[C@@H]1CC#N [adagrasib]	5.08	14.1	1.53			
CC1(N)CCN(c2cnc(-c3cccc(Cl)c3Cl)c(N)n2)CC1 [SHP099] + C=C(F)C(=O)N1CCN(c2nc(OC[C@@H]3CCCN3C)nc3c2CCN(c2cccc4cccc(Cl)c24)C3)C[C@@H]1CC#N [adagrasib]	1.39	19.4	14.3			
Cc1c(CN2CCC(Nc3ncnc4sc(CC(F)(F)F)cc34)CC2)ccc2[nH]c(C#N)cc12 [MI-463] + C=C(F)C(=O)N1CCN(c2nc(OC[C@@H]3CCCN3C)nc3c2CCN(c2cccc4cccc(Cl)c24)C3)C[C@@H]1CC#N [adagrasib]	5.31	19.7	0.27			
CC1(C)CCC(c2ccc(Cl)cc2)=C(CN2CCN(c3ccc(C(=O)NS(=O)(=O)c4ccc(N[C@H](CCN5CCOCC5)CSc5ccccc5)c(S(=O)(=O)C(F)(F)F)c4)cc3)CC2)C1 [ABT-263] + C=C(F)C(=O)N1CCN(c2nc(OC[C@@H]3CCCN3C)nc3c2CCN(c2cccc4cccc(Cl)c24)C3)C[C@@H]1CC#N [adagrasib]	6.81	12.1	30.9			
O=C(O)CNC(=O)c1c(O)c2ccccc2n(Cc2ccccc2)c1=O [IOX2] + C=C(F)C(=O)N1CCN(c2nc(OC[C@@H]3CCCN3C)nc3c2CCN(c2cccc4cccc(Cl)c24)C3)C[C@@H]1CC#N [adagrasib]	0.22	25.2	13.4			
Nc1cc(C(F)(F)F)c(-c2cc(N3CCOCC3)nc(N3CCOCC3)n2)cn1 [BKM120] + C=C(F)C(=O)N1CCN(c2nc(OC[C@@H]3CCCN3C)nc3c2CCN(c2cccc4cccc(Cl)c24)C3)C[C@@H]1CC#N [adagrasib]	2.43	12.9	9.24			
Cc1c(Cn2c(C)nc3c(C(=O)O)cc(N4CCOCC4)cc32)cccc1C(F)(F)F + C=C(F)C(=O)N1CCN(c2nc(OC[C@@H]3CCCN3C)nc3c2CCN(c2cccc4cccc(Cl)c24)C3)C[C@@H]1CC#N [adagrasib]	-4.04	8.98	-1.49			
CC/C(=C(\c1ccccc1)c1ccc(OCCN(C)C)cc1)c1ccccc1 [Tamoxifen] + C=C(F)C(=O)N1CCN(c2nc(OC[C@@H]3CCCN3C)nc3c2CCN(c2cccc4cccc(Cl)c24)C3)C[C@@H]1CC#N [adagrasib]	6.27	10.3	5.45			
COc1cc(Nc2c(C#N)cnc3cc(OCCCN4CCN(C)CC4)c(OC)cc23)c(Cl)cc1Cl [Bosutinib] + C=C(F)C(=O)N1CCN(c2nc(OC[C@@H]3CCCN3C)nc3c2CCN(c2cccc4cccc(Cl)c24)C3)C[C@@H]1CC#N [adagrasib]	1.58	14.5	6.35			
CC(=O)c1c(C)c2cnc(Nc3ccc(N4CCNCC4)cn3)nc2n(C2CCCC2)c1=O [Palbociclib] + C=C(F)C(=O)N1CCN(c2nc(OC[C@@H]3CCCN3C)nc3c2CCN(c2cccc4cccc(Cl)c24)C3)C[C@@H]1CC#N [adagrasib]	2.62	8.54	19.2			
Cc1nc(NC(=O)N2CCC[C@H]2C(N)=O)sc1-c1ccnc(C(C)(C)C(F)(F)F)c1 [BYL-719] + C=C(F)C(=O)N1CCN(c2nc(OC[C@@H]3CCCN3C)nc3c2CCN(c2cccc4cccc(Cl)c24)C3)C[C@@H]1CC#N [adagrasib]	3.99	14.3	17			
C=CC(=O)Nc1cc(Nc2nccc(-c3cn(C)c4ccccc34)n2)c(OC)cc1N(C)CCN(C)C [Osimertinib] + C=C(F)C(=O)N1CCN(c2nc(OC[C@@H]3CCCN3C)nc3c2CCN(c2cccc4cccc(Cl)c24)C3)C[C@@H]1CC#N [adagrasib]	8.16	10	26.1			
C[C@H](Nc1ncnc2nc[nH]c12)c1cc2cccc(Cl)c2c(=O)n1-c1ccccc1 [Duvelisib] + C=C(F)C(=O)N1CCN(c2nc(OC[C@@H]3CCCN3C)nc3c2CCN(c2cccc4cccc(Cl)c24)C3)C[C@@H]1CC#N [adagrasib]	4.67	15.9	12.8			
CN(C)C/C=C/C(=O)Nc1cc2c(Nc3ccc(F)c(Cl)c3)ncnc2cc1O[C@H]1CCOC1 [Afatinib] + C=C(F)C(=O)N1CCN(c2nc(OC[C@@H]3CCCN3C)nc3c2CCN(c2cccc4cccc(Cl)c24)C3)C[C@@H]1CC#N [adagrasib]	11.5	11.1	21.2			
CCNC(=O)C[C@@H]1N=C(c2ccc(Cl)cc2)c2cc(OC)ccc2-n2c(C)nnc21 [iBET-762] + C=CC(=O)N1CCN(c2nc(=O)n(-c3c(C)ccnc3C(C)C)c3nc(-c4c(O)cccc4F)c(F)cc23)[C@@H](C)C1 [sotorasib]				5.17	22.3	7.05
O=C(C1CC1)N1CC[C@@H](Cn2c(-c3ccc(-c4ccc5occc5c4)cc3)nc3cnccc32)C1 + C=CC(=O)N1CCN(c2nc(=O)n(-c3c(C)ccnc3C(C)C)c3nc(-c4c(O)cccc4F)c(F)cc23)[C@@H](C)C1 [sotorasib]				1	14.4	13.8
